Measured values taken from patent US9993570B2, “Radiolabeled tracers for poly (ADP-ribose) polymerase-1 (PARP-1), methods and uses therefor” (Washington University, priority 2014, dated 2018).
“Also recorded” adds a separate entry of the source.

What was measured:
[1] = Estimated human dosimetry from mouse biodistribution study (MIRD)
Excerpt: Estimates were obtained from the organ residence times calculated from the mouse biodistribution data, shown in Table 1, using standard MIRD methodology.

MDA-MB-436 tumors = experiment: microPET imaging with [18F]12, MDA-MB-436 xenograft tumors; format: in vivo, mice; details: baseline, 0-60 min post-tracer injection
Procedure: This example illustrates the visualization of tumor tissue in microPET in mice. MDA-MB-436 human breast cancer xenograft tumors in immune-deficient mice were visualized by PET using [^18F]12.
MDA-MB-436 and MDA-MB-231 human breast cancer cells were maintained in cell culture under standard conditions with 5% CO2 atmosphere using Eagle's minimum essential medium (with Earle's balanced salt solution and 2 mM L-glutamine) supplemented with 2 mM E-glutamine, 1 mM sodium pyruvate, 0.1 mM non-essential amino acids 2% vitamins for MEM, and 5% fetal bovine serum. Cells in exponential growth were trypsinized and harvested for tumor implantation. After counting, cells were re-suspended in ice-cold 1:1 Matrigel and PBS to give the desired concentration and held on ice.
Mature female athymic nu/nu mice from Charles River Laboratories are allowed to acclimate in an AALAC accredited housing facility for at least 1 week prior to tumor implantation for these serial imaging studies. Female nu/nu mice were implanted in the mammary fat pads (near the auxiliary lymph nodes) with ˜8×10^6 MDA-MB-436 breast cancer cells in ˜100 μL of 1:1 Matrigel:PBS. Imaging studies were conducted 2-3 weeks post implantation.
Tumor-bearing mice were placed in an induction chamber containing ˜2% isoflurane/oxygen and then secured to a custom double bed for placement of tail vein catheters; anesthesia was maintained via nose-cone at ˜1% isoflurane/oxygen for the dynamic imaging procedure. The mice were injected with 150-200 μCi of [^18F]12 and scanned for 0-60 min using Focus 220 and Inveon PET/CT scanners. The standard uptake values (SUVs) were generated from manually drawn regions of interests for tumors and surrounding ‘background’ tissue. Visualization of specific uptake was determined by comparison of baseline scans with images acquired by tracer injection 20 minutes after pre-treatment with the blocking agents olaparib (50 mg/kg, IP) or 12 (1 mg/kg, IP).

[2] = system: Lung cell lines NCI-h69 and NCI-h82; experiment: [18F]WC-4-138 uptake in cell culture, small cell lung cancer lines; format: cell-based; details: NCI-h69 and NCI-h82, incubation 5, 30 or 60 minutes, normalized to protein
Procedure: In these experiments, the head and neck squamous cell carcinoma lines SCC1, SCC15, and SCC25 (ATCC) were propagated in Dulbecco's Modified Eagle's Medium (DMEM, Gibco) supplemented with 10% Fetal Bovine Serum (FBS, Gibco), Penicillin-Streptomycin (P/S, Gibco), and 100 ng/ml hydrocortisone (Sigma-Aldrich). The small cell lung cancer lines NCI-h69 and NCI-h82 (ATCC) were propagated m RPMI Medium (Gibco) supplemented with 10% FBS and 1% P/S. The human breast cancer cell line MDA-MB-231 (ATCC) was propagated in Eagle's Minimum Essential Medium (Gibco) supplemented with 5% FBS, 2% Vitamins for MEM (Gibco), 1% 200 mM L-glutamine (Gibco), 1% 10 mM Non-Essential Amino Acid (NEAA, Gibco).
For each experimental replicate, approximately 1 μCi of [^18F]WC-4-138 was diluted in 1 ml of cell culture medium and added to 10^6 cells. […] Radioactivity was measured in the collected medium, PBS, or cell pellets. Protein from the cell pellet was quantified using a […]. All data were decay-corrected and normalized to total protein quantity in the cell pellet. […]
The head and neck cell lines SCC1 and SCC25 constitutively take up small amounts of tracer, registering as 0.001-0.002 μCi/μg in the cell pellet (FIG. 5A). […] PARP activity was measured in HNSCC or lung SCLC cells. […]

Estimated human dosimetry, Adrenals ([1]; Female): 0.052 rad/mCi | Estimated human dosimetry, Brain ([1]; Female): 0.022 rad/mCi | Estimated human dosimetry, Breasts ([1]; Female): 0.019 rad/mCi | Estimated human dosimetry, Effective Dose ([1]; Female): 0.057 rem/mCi | Estimated human dosimetry, Effective Dose Equivalent ([1]; Female): 0.075 rad/mCi | Estimated human dosimetry, Gallbladder Wall ([1]; Female): 0.033 rad/mCi | Estimated human dosimetry, Heart Wall ([1]; Female): 0.047 rad/mCi | Estimated human dosimetry, Kidneys ([1]; Female): 0.093 rad/mCi | Estimated human dosimetry, LLI Wall ([1]; Female): 0.036 rad/mCi | Estimated human dosimetry, Liver ([1]; Female): 0.065 rad/mCi | Estimated human dosimetry, Lungs ([1]; Female): 0.045 rad/mCi | Estimated human dosimetry, Muscle ([1]; Female): 0.035 rad/mCi | Estimated human dosimetry, Osteogenic Cells ([1]; Female): 0.203 rad/mCi | Estimated human dosimetry, Ovaries ([1]; Female): 0.045 rad/mCi | Estimated human dosimetry, Pancreas ([1]; Female): 0.064 rad/mCi | Estimated human dosimetry, Red Marrow ([1]; Female): 0.069 rad/mCi | Estimated human dosimetry, Skin ([1]; Female): 0.019 rad/mCi | Estimated human dosimetry, Small Intestine ([1]; Female): 0.030 rad/mCi | Estimated human dosimetry, Spleen ([1]; Female): 0.133 rad/mCi | Estimated human dosimetry, Stomach Wall ([1]; Female): 0.030 rad/mCi | Estimated human dosimetry, Thymus ([1]; Female): 0.026 rad/mCi | Estimated human dosimetry, Thyroid ([1]; Female): 0.038 rad/mCi | Estimated human dosimetry, Total Body ([1]; Female): 0.039 rad/mCi | Estimated human dosimetry, ULI Wall ([1]; Female): 0.031 rad/mCi | Estimated human dosimetry, Urinary Bladder Wall ([1]; Female): 0.301 rad/mCi | Estimated human dosimetry, Uterus ([1]; Female): 0.053 rad/mCi | Estimated human dosimetry, Adrenals ([1]; Male): 0.043 rad/mCi | Estimated human dosimetry, Brain ([1]; Male): 0.019 rad/mCi | Estimated human dosimetry, Effective Dose ([1]; Male): 0.047 rem/mCi | Estimated human dosimetry, Effective Dose Equivalent ([1]; Male): 0.062 rad/mCi | Estimated human dosimetry, Gallbladder Wall ([1]; Male): 0.028 rad/mCi | Estimated human dosimetry, Heart Wall ([1]; Male): 0.038 rad/mCi | Estimated human dosimetry, Kidneys ([1]; Male): 0.083 rad/mCi | Estimated human dosimetry, LLI Wall ([1]; Male): 0.029 rad/mCi | Estimated human dosimetry, Liver ([1]; Male): 0.050 rad/mCi | Estimated human dosimetry, Lungs ([1]; Male): 0.035 rad/mCi | Estimated human dosimetry, Muscle ([1]; Male): 0.026 rad/mCi | Estimated human dosimetry, Osteogenic Cells ([1]; Male): 0.155 rad/mCi | Estimated human dosimetry, Pancreas ([1]; Male): 0.055 rad/mCi | Estimated human dosimetry, Red Marrow ([1]; Male): 0.061 rad/mCi | Estimated human dosimetry, Skin ([1]; Male): 0.016 rad/mCi | Estimated human dosimetry, Small Intestine ([1]; Male): 0.026 rad/mCi | Estimated human dosimetry, Spleen ([1]; Male): 0.110 rad/mCi | Estimated human dosimetry, Stomach Wall ([1]; Male): 0.024 rad/mCi | Estimated human dosimetry, Testes ([1]; Male): 0.022 rad/mCi | Estimated human dosimetry, Thymus ([1]; Male): 0.020 rad/mCi | Estimated human dosimetry, Thyroid ([1]; Male): 0.033 rad/mCi | Estimated human dosimetry, Total Body ([1]; Male): 0.031 rad/mCi | Estimated human dosimetry, ULI Wall ([1]; Male): 0.025 rad/mCi | Estimated human dosimetry, Urinary Bladder Wall ([1]; Male): 0.220 rad/mCi
SMILES: O=C1NCCn2c(-c3ccc(OCC[18F])cc3)nc3cccc1c32 [[^18F]12]
[18F]12 uptake in MDA-MB-436 tumors (microPET) (MDA-MB-436 tumors): increased uptake that was distinguishable from background; also recorded: progressively accumulated in the tumor; also recorded: accumulation of the radioactivity in these tumors | tracer uptake in the cell pellet [2]: 0.004-0.006 μCi/μg
